According to patent US9615576B2, “Pesticidal compositions and processes related thereto” (Dow AgroSciences LLC, priority 2011, dated 2017):

Legend:
[1] = system: Corn Earworm (CEW) (Helicoverpa zea); test: Bioassays on Corn Earworm (CEW), 128-well diet tray assay; assay type: in vivo; conditions: 168 h, 50 μg/cm^2 test compound on artificial diet, second instar larvae, 25° C., five to seven days, average of eight wells, read-out: CEW Rating (% mortality)
Procedure, shortened: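 Second-instar larvae (one to five per well) placed on artificial diet treated with 50 μg/cm^2 compound in 90:10 acetone-water, dried; eight wells per compound. Held at 25° C, 14:10 light-dark, five to seven days; percent mortality averaged over wells.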

[2] = system: Beet Armyworm (BAW) (Spodoptera exigua); test: Bioassays on Beet Armyworm (BAW), 128-well diet tray assay; assay type: in vivo; conditions: 168 h, 50 μg/cm^2 test compound on artificial diet, second instar larvae, 25° C., five to seven days, average of eight wells, read-out: BAW Rating (% mortality)
Procedure, shortened: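 Second-instar larvae (1–5 per well) on artificial diet surface-treated with 50 μg/cm^2 compound applied in 90:10 acetone-water and dried; eight wells per compound. Held 5–7 days at 25° C., 14:10 light-dark. Percent mortality scored per well and averaged over eight wells.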

| SMILES | mortality at 50 µg/cm2 [1] [%] | mortality at 50 µg/cm2 [2] [%] |
| --- | --- | --- |
| Cc1cc(/C=C/C(c2cc(Cl)cc(Cl)c2)C(F)(F)F)ccc1C(=O)N1CCCC1=O (centres unmarked) [AC8] | 0 to 50 | 0 |
| CS(=O)(=O)CCC(=O)NCc1ccc(/C=C/C(c2cc(Cl)c(Cl)c(Cl)c2)C(F)(F)F)cc1Cl (centres unmarked) [CC30, (E)-N-(2-chloro-4-(4,4,4-trifluoro-3-(3,4,5-trichlorophenyl)but-1-en-1-yl)benzyl)-3-(methylsulfonyl)propanamide] | 50 to 100 | 50 to 100 |
| N#Cc1cc(/C=C/C(c2cc(C(F)(F)F)cc(C(F)(F)F)c2)C(F)(F)F)ccc1-n1cncn1 (centres unmarked) [DC30] | 50 to 100 | 50 to 100 |
| O=C(NOc1ccc(/C=C/C(c2cc(Cl)c(Cl)c(Cl)c2)C(F)(F)F)cc1)C1CC1 (centres unmarked) [CC52, (E)-N-(4-(4,4,4-trifluoro-3-(3,4,5-trichlorophenyl)but-1-en-1-yl)phenoxy)cyclopropanecarboxamide] | 0 | 50 to 100 |
| Cc1cc(/C=C/C(c2cc(Cl)c(Cl)c(Cl)c2)C(F)(F)F)cc(C#N)c1-n1cncn1 (centres unmarked) [DC45] | 50 to 100 | 50 to 100 |
| Cc1ncn(-c2ccc(/C=C/C(c3cc(Cl)cc(Cl)c3)C(F)(F)F)cc2C#N)n1 (centres unmarked) [DC36] | 0 | 0 |
| O=C(NCc1ccc(/C=C/C(c2cc(Cl)c(Cl)c(Cl)c2)C(F)(F)F)cc1Cl)Nc1ccccn1 (centres unmarked) [CC35] | 0 | 0 |
| O=C(CNC(=O)c1ccc(/C=C/C(c2ccc(F)c(Cl)c2)C(F)(F)F)cc1Br)NCC(F)(F)F (centres unmarked) [AC99] | 50 to 100 | 50 to 100 |
| CC(=O)NCc1ccc(/C=C/C(c2cc(Cl)cc(Cl)c2)C(F)(F)F)cc1Cl (centres unmarked) [CC7, (E)-N-(2-chloro-4-(3-(3,5-dichlorophenyl)-4,4,4-trifluorobut-1-en-1-yl)benzyl)acetamide] | 50 to 100 | 50 to 100 |
| Cc1cc(/C=C/C(c2cc(Cl)cc(Cl)c2)C(F)(F)F)ccc1C(=O)NCc1cnc(Cl)s1 (centres unmarked) [AC15] | 50 to 100 | 50 to 100 |
| CCNC(=O)NCc1ccc(/C=C/C(c2cc(Cl)c(Cl)c(Cl)c2)C(F)(F)F)cc1Br (centres unmarked) [CC33] | 50 to 100 | 50 to 100 |
| FC(F)(F)C(/C=C/c1ccc(-n2cncn2)cc1)c1cccc(Cl)c1 (centres unmarked) [DC2] | 0 | 0 |
| CCc1cc(/C=C/C(c2cc(Cl)c(F)c(Cl)c2)C(F)(F)F)ccc1C(=O)NCc1ccc(Cl)nc1 (centres unmarked) [AC72] | 50 to 100 | 50 to 100 |
| N#Cc1cc(/C=C/C(c2cc(Cl)c(Cl)c(Cl)c2)C(F)(F)F)ccc1-n1cnc(N(C(=O)C2CC2)C(=O)C2CC2)n1 (centres unmarked) [DC42, (E)-N-(1-(2-cyano-4-(4,4,4-trifluoro-3-(3,4,5-trichlorophenyl)but-1-en-1-yl)phenyl)-1H-1,2,4-triazol-3-yl)-N-(cyclopropanecarbonyl)cyclopropanecarboxamide] | 50 to 100 | 50 to 100 |
| O=C(CNC(=O)c1ccc(/C=C/C(c2cc(Cl)cc(Cl)c2)C(F)(F)F)cc1Cl)NCC(F)(F)F (centres unmarked) [AC57] | 50 to 100 | 50 to 100 |
| O=C(NC1CSC1)c1ccc(/C=C/C(c2cc(Cl)c(Cl)c(Cl)c2)C(F)(F)F)cc1C(F)(F)F (centres unmarked) [AC34] | 50 to 100 | 50 to 100 |
| O=C(CC(F)(F)F)NC1CCCc2cc(/C=C/C(c3cc(Cl)c(Cl)c(Cl)c3)C(F)(F)F)ccc21 (centres unmarked) [BC5] | 50 to 100 | 50 to 100 |

| SMILES | mortality at 50 µg/cm2 [1] [%] | mortality at 50 µg/cm2 [2] [%] |
| --- | --- | --- |
| O=C(NCc1ccc(Cl)nc1)c1ccc(/C=C/C(c2cc(Cl)c(F)c(Cl)c2)C(F)(F)F)cc1Br (centres unmarked) [AC63] | 50 to 100 | 50 to 100 |
| CCNC(=S)NCc1ccc(/C=C/C(c2cc(Cl)c(Cl)c(Cl)c2)C(F)(F)F)cc1Cl (centres unmarked) [CC37, (E)-1-(2-chloro-4-(4,4,4-trifluoro-3-(3,4,5-trichlorophenyl)but-1-en-1-yl)benzyl)-3-ethylthiourea] | 50 to 100 | 50 to 100 |
| Cc1cc(/C=C/C(c2cc(Cl)cc(Cl)c2)C(F)(F)F)ccc1C(=O)NCc1nnc(C2CC2)o1 (centres unmarked) [AC89, (E)-N-((5-cyclopropyl-1,3,4-oxadiazol-2-yl)methyl)-4-(3-(3,5-dichlorophenyl)-4,4,4-trifluorobut-1-en-1-yl)-2-methylbenzamide] | 50 to 100 | 50 to 100 |
| FC(F)(F)C(/C=C/c1ccc(-n2cncn2)cc1)c1ccc(Cl)cc1 (centres unmarked) [DC4] | 0 | 50 to 100 |
| O=C(NCc1ccc(/C=C/C(c2cc(Cl)c(Cl)c(Cl)c2)C(F)(F)F)cc1C(F)(F)F)C1CC1 (centres unmarked) [CC22] | 50 to 100 | 50 to 100 |
| Cc1cc(/C=C/C(c2cc(Cl)cc(Cl)c2)C(F)(F)F)ccc1C(=O)Nc1ccc(Cl)nc1 (centres unmarked) [AC59] | 50 to 100 | 50 to 100 |
| Cc1cc(/C=C/C(c2cc(Cl)cc(Cl)c2)C(F)(F)F)ccc1C(=O)NOCc1ccc(Cl)nc1 (centres unmarked) [AC21] | 0 | 0 |
| COC(=O)C(=O)NCc1ccc(/C=C/C(c2cc(Cl)c(Cl)c(Cl)c2)C(F)(F)F)cc1Cl (centres unmarked) [CC41, (E)-methyl 2-((2-chloro-4-(4,4,4-trifluoro-3-(3,4,5-trichlorophenyl)but-1-en-1-yl)benzyl)amino)-2-oxoacetate] | 0 | 0 |
| O=C(NC1C[S+]([O-])C1)c1ccc(/C=C/C(c2cc(Cl)c(F)c(Cl)c2)C(F)(F)F)cc1F (centres unmarked) [AC87] | 50 to 100 | 50 to 100 |
| O=C(NC1CCN(C2COC2)CC1)c1ccc(/C=C/C(c2cc(Cl)c(Cl)c(Cl)c2)C(F)(F)F)cc1Br (centres unmarked) [AC108, (E)-2-bromo-N-(1-(oxetan-3-yl)piperidin-4-yl)-4-(4,4,4-trifluoro-3-(3,4,5-trichlorophenyl)but-1-en-1-yl)benzamide] | 0 | 0 to 50 |
| Cc1cc(/C=C/C(c2cc(Cl)cc(Cl)c2)C(F)(F)F)ccc1C(=O)NCc1nc2ccccc2s1 (centres unmarked) [AC42] | 0 | 50 to 100 |
| COc1ccc(CNC(=O)c2ccc(/C=C/C(c3cc(Cl)c(Cl)c(Cl)c3)C(F)(F)F)cc2Br)cn1 (centres unmarked) [AC97] | 0 | 0 |
| FC(F)(F)c1cc(/C=C/C(c2cc(Cl)cc(Cl)c2)C(F)(F)F)ccc1-n1cncn1 (centres unmarked) [DC51] | 50 to 100 | 50 to 100 |
| O=C(NC1CCNCC1)c1ccc(/C=C/C(c2cc(Cl)c(Cl)c(Cl)c2)C(F)(F)F)cc1Br (centres unmarked) [AC114, (E)-2-bromo-N-(piperidin-4-yl)-4-(4,4,4-trifluoro-3-(3,4,5-trichlorophenyl)but-1-en-1-yl)benzamide] | 0 to 50 | 50 to 100 |
| CN(C)NC(=O)CNC(=O)c1ccc(/C=C/C(c2cc(Cl)c(Cl)c(Cl)c2)C(F)(F)F)cc1Br (centres unmarked) [AC112] | 50 to 100 | 50 to 100 |
| C/C(=C\C(c1cc(Cl)cc(Cl)c1)C(F)(F)F)c1ccc(-n2cncn2)cc1 (centres unmarked) [DC68, (E)-1-(4-(4-(3,5-dichlorophenyl)-5,5,5-trifluoropent-2-en-2-yl)phenyl)-1H-1,2,4-triazole] | 50 to 100 | 50 to 100 |
| Cc1cc(/C=C/C(c2cc(Cl)cc(Cl)c2)C(F)(F)F)ccc1C(=O)NC(C)(C)c1ccccn1 (centres unmarked) [AC16] | 50 to 100 | 50 to 100 |
